This passage reports inhibition and IC50 results from ChEMBL document CHEMBL1806384, “Identification of benzofuran-4,5-diones as novel and selective non-hydroxamic acid, non-peptidomimetic based inhibitors of human peptide deformylase” (Bioorg Med Chem Lett, 2011).

As usually defined, the inhibition is the drop in the measured response relative to a control, in per cent. In general, IC50 refers to the concentration needed to halve the response being measured. Higher therefore signals weaker potency in that assay.

For assay [1], the target named is T1, Interstitial collagenase (Homo sapiens) (UniProt P03956).
T1 sequence (whole entry): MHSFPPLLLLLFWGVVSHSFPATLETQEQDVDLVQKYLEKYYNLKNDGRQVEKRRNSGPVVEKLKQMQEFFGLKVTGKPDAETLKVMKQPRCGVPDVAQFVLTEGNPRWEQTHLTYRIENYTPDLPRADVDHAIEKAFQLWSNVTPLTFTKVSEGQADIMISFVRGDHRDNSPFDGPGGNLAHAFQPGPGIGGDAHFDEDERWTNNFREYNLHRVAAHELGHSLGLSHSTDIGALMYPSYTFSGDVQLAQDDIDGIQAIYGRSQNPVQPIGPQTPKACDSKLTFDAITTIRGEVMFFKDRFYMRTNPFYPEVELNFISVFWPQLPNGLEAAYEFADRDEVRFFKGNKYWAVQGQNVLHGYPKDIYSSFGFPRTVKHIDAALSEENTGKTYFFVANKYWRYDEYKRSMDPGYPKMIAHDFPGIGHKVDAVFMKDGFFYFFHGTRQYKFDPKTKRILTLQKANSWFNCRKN
The assay is described as follows: Inhibition of human recombinant MMP1 at 100 uM after 1 hr by fluorescence polarization based competition assay. (In general: In fluorescence polarisation assays a small probe gives low polarisation when free and higher when bound to something large.)

In assay [2] the target is T2, Peptide deformylase (Escherichia coli) (UniProt Q9JN24).
T2 sequence (whole entry): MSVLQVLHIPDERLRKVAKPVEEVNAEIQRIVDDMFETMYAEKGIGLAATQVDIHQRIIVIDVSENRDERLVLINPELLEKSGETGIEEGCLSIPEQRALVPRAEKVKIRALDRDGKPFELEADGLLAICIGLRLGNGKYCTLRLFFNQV
Description: Inhibition of Escherichia coli peptide deformylase at 100 uM after 1 hr by fluorescence polarization based competition assay.

In a further assay the test system is Y79. Description: Cytotoxicity against human Y79 cells. The class given is functional, cell-based.
The test system of assay [3] is HL-60. The assay is described as follows: Cytotoxicity against human HL60 cells. The class given is functional, cell-based.
Assay [4] can be described thus: Cytotoxicity against human Meso47 cells. It is filed as functional, cell-based.
Assay [5] in a line: Cytotoxicity against human ALL3 cells. It is filed as functional, cell-based.
In assay [6] the target is T3, Peptide deformylase, mitochondrial (Homo sapiens) (UniProt Q9HBH1).
T3 sequence (whole entry): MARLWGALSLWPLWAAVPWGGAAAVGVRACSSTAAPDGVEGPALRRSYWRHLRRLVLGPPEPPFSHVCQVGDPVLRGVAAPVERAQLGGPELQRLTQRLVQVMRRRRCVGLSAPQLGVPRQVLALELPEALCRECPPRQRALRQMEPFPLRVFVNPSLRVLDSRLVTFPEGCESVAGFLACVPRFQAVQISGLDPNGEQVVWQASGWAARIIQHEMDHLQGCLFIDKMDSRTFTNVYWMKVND
Description: Inhibition of human peptide deformylase at 100 uM after 1 hr by fluorescence polarization based competition assay.

Another assay concerns HEK293. Description: Cytotoxicity against human HEK293 cells. The class given is cell-based.
For a further assay, the system named is MOLT-3. Description: Cytotoxicity against human MOLT3 cells. The class given is functional, cell-based.
Assay [7] concerns HL-60. Description: Cytotoxicity against human vincristine-resistant HL60 cells. The class given is functional, cell-based.
Assay [8] can be described thus: Cytotoxicity against human CWR22 cells. It is filed as functional, cell-based.
The subject of a further assay is Jurkat. The assay is described as follows: Cytotoxicity against human Jurkat cells. The class given is functional, cell-based.
Assay [9] deals with T4, Aminopeptidase N (Sus scrofa) (UniProt P15145).
T4 sequence (whole entry): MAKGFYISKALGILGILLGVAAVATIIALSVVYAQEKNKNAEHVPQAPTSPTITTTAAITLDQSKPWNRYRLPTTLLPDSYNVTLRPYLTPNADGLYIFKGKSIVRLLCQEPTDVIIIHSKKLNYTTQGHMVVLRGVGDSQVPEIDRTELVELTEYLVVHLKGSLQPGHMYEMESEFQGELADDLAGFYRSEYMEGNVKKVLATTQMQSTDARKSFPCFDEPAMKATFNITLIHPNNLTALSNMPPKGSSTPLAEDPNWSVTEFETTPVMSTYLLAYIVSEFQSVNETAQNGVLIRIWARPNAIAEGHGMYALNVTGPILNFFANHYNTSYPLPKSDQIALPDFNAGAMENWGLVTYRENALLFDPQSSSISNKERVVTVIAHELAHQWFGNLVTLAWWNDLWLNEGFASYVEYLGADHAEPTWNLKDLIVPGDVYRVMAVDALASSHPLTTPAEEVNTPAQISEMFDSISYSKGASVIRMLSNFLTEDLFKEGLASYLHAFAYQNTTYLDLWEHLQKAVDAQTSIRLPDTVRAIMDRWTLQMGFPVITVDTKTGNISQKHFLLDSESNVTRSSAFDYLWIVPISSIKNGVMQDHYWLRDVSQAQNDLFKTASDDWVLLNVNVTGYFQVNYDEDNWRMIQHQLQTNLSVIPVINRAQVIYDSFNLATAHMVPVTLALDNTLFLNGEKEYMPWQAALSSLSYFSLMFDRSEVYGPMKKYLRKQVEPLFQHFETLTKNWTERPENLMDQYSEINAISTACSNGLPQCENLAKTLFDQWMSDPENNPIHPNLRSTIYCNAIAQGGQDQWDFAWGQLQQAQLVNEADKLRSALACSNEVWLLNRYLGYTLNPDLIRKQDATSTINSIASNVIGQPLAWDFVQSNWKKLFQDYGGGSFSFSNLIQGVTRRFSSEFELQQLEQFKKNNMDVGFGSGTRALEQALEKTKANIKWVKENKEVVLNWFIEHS
The assay is described as follows: Inhibition of porcine kidney microsomal aminopeptidase N at 100 uM after 1 hr by fluorescence polarization based competition assay.

As for `COc1ccc(C(=O)c2coc3cc(Br)c(O)cc23)cc1`, the inhibition in assay [1] is 10%; in assay [2], 0%; in [6], 0%; in [9], 0%. The IC50 in the assay on Y79 was 100 µM; in the assay with HL-60 [3], 100 µM; in assay [4], 100 µM; in assay [5] it was 100 µM; in the assay with HEK293, 72 µM; in the assay on MOLT-3, 72 µM. The results for the IC50 (in the assay with HL-60 [7]; in [8]; in the assay on Jurkat) were 100 µM, 47 µM and 100 µM, respectively.
Regarding `COc1cc(C(=O)c2coc3c(Cl)c(Cl)c(O)cc23)cc(OC)c1OC`, the inhibition in assay [1] stood at 0%; in assay [2], 2%; in [6] it was 18%; in assay [9], 2%. Moreover, the IC50 (with Y79; with HL-60 [3]; in assay [4]; in assay [5]; in the assay on HEK293; in the assay on MOLT-3) was 100 µM throughout. In addition, the 50% inhibitory concentration (IC50) (with HL-60 [7]; in assay [8]; in the assay on Jurkat) was 100 µM throughout.
With `O=C(c1ccccc1)c1coc2c(Cl)c(Cl)c(O)cc12`, the inhibition in assay [1] was 0%; in [2], 1%; in assay [6], 24%; in assay [9] it was 6%. Further, the half-maximal inhibitory concentration (IC50) (with Y79; with HL-60 [3]; in [4]; in assay [5]; with HEK293; with MOLT-3) was 100 µM each time. Further, the IC50 (in the assay on HL-60 [7]; in assay [8]; with Jurkat) was 100 µM each time.
As for `COc1ccc(C(=O)c2coc3c(Br)cc(O)cc23)cc1`, the inhibition was found to be 0% in [1], 9% in assay [2], 11% in assay [6] and 0% in assay [9]. For the same compound, the IC50 (with Y79; in the assay on HL-60 [3]; in [4]; in assay [5]; in the assay on HEK293; in the assay on MOLT-3) was 100 µM throughout. The half-maximal inhibitory concentration (IC50) (in the assay on HL-60 [7]; in assay [8]; with Jurkat) was 100 µM each time.
As to `COc1ccc(C(=O)c2coc3c(Br)cc(O)c(Br)c23)cc1`, the inhibition in assay [1], in assay [2], in [6] and in assay [9] was 0% each time. For the same compound, the IC50 with Y79 worked out at 64 µM; in the assay on HL-60 [3], 9 µM; in [4], 100 µM; in assay [5] it was 68 µM; with HEK293, 10 µM; with MOLT-3, 10 µM. Moreover, the IC50 in the assay with HL-60 [7] was found to be 40 µM; in [8], 57 µM; in the assay on Jurkat, 8 µM.
Consider `COc1ccc(C(=O)c2coc3c2C(=O)C(=O)c2ccccc2-3)cc1OC`, for which the inhibition in [1], in assay [2], in assay [6] and in assay [9] was 0% in each case.
Turning to `COc1ccc(C(=O)c2coc3c(Br)c(Br)c(O)cc23)cc1`, the inhibition in assay [1] was determined as 2%; in assay [2], 3%; in [6], 0%; in [9], 0%. In addition, the IC50 (with Y79; in the assay with HL-60 [3]; in [4]; in assay [5]; with HEK293; with MOLT-3) was 100 µM throughout. Also, the IC50 (in the assay on HL-60 [7]; in assay [8]; in the assay on Jurkat) was 100 µM in each case.
On to `COc1cc(C(=O)c2coc3c2C(=O)C(=O)c2ccccc2-3)cc(OC)c1OC`, for which the inhibition was 0% in [1], 7% in [2], 5% in [6] and 10% in assay [9].
Taken in the same sequence, the figures for `COc1ccc(C(=O)c2coc3c2C(=O)C(=O)c2ccccc2-3)cc1` were 2%, 3%, 0% and 0%.
As for `COc1cc(C(=O)c2coc3c(Br)c(Br)c(O)cc23)cc(OC)c1OC`, the inhibition in assay [1] stood at 0%; in assay [2], 7%; in [6] it was 5%; in assay [9], 10%. The IC50 in the assay with Y79 amounted to 100 µM; with HL-60 [3], 79 µM; in assay [4] it was 100 µM; in [5] it was 60 µM; with HEK293, 100 µM; with MOLT-3, 100 µM. For the same compound, the 50% inhibitory concentration (IC50) was 100 µM in the assay on HL-60 [7], 100 µM in assay [8] and 62 µM with Jurkat.
`COc1ccc(C(=O)c2coc3cc(Cl)c(O)c(Cl)c23)cc1`: the inhibition worked out at 0% in [1], 3% in assay [2], 26% in [6] and 0% in assay [9]. In addition, the IC50 stood at 100 µM with Y79; 19 µM in the assay on HL-60 [3]; 100 µM in assay [4]; 100 µM in assay [5]; 32 µM with HEK293; 32 µM in the assay on MOLT-3. For the same compound, the IC50 is 100 µM in the assay on HL-60 [7], 100 µM in assay [8] and 24 µM with Jurkat.
`COc1ccc(C(=O)c2coc3ccc(O)c(Br)c23)cc1`: the inhibition in assay [1], in [2], in [6] and in assay [9] was 0% each time. Also, the IC50 (in the assay with Y79; in the assay on HL-60 [3]; in assay [4]; in assay [5]; in the assay with HEK293; with MOLT-3) was 100 µM each time. Moreover, the IC50 (in the assay on HL-60 [7]; in assay [8]; in the assay with Jurkat) was 100 µM throughout.
For the compound `COc1ccc(C(=O)c2coc3c(Cl)c(Cl)c(O)cc23)cc1OC`, the inhibition in assay [1], in assay [2], in [6] and in assay [9] was 0% throughout. The IC50 (with Y79; in the assay on HL-60 [3]; in [4]; in assay [5]; in the assay with HEK293; in the assay with MOLT-3) was 100 µM throughout. In addition, the IC50 (in the assay on HL-60 [7]; in assay [8]; with Jurkat) was 100 µM each time.
With `COc1ccc(C(=O)c2coc3c(Br)c(Br)c(O)cc23)cc1OC`, the inhibition in assay [1], in [2], in [6] and in assay [9] was 0% each time. Further, the IC50 with Y79 was 100 µM; in the assay with HL-60 [3] it was 57 µM; in [4], 100 µM; in assay [5], 100 µM; in the assay on HEK293 it was 52 µM; in the assay on MOLT-3, 52 µM. Further, the results for the IC50 (in the assay on HL-60 [7]; in assay [8]; with Jurkat) were 100 µM, 100 µM and 37 µM, respectively.
